Several values for one entry are separate records, joined by “and”; a condition that tells them apart may be missing. Equal entries are not always repeated. Entries after “also recorded” stand apart in the source; their conditions may differ.
Key:
WT C57BL/6 mice = experiment: Flow cytometry of spleen immune cell subsets after 12 days of treatment; assay type: in vivo, mouse; conditions: 50 mg/kg, vs vehicle, result in words
Method: Long-term in vivo toxicity experiments. WT C57/BL6 (The Jackson Laboratory) male and female mice were treated daily with 50 mg/kg M1i-124 or vehicle control for 28 days. At the time of sacrifice, blood was obtained for complete blood count, alanine transaminase, albumin, and total bilirubin (Abaxis). Livers from control and M1i-124 treated mice were collected for H&E analysis.
Flow cytometry. Splenocytes were isolated from WT mice after 12 days of treatment with 50 mg/kg M1i-124 or vehicle control. After obtaining a single cell suspension using […] filter, cells were stained with viability dye (Tonbo Biosciences Ghost Red 780, Fisher Healthcare, Cat #50-105-2988). After blocking with mouse BD Fc BlockTM (BD Biosciences, Cat# 553141), splenocytes were stained with a panel of antibodies including antibodies from Invitrogen (anti-CD3 APC, Cat# […]
0251-82 and anti-NK1.1 PE-Cyanine 7 Cat#25-5941-82), an antibody from BD Bioscience (anti- […]
and anti-CD4 BV711 Cat# 100557). Samples were run on a 5 laser LSR Fortessa flow cytometer and analyzed with FlowJo software.

[1] = test system: BCL10 and MALT1 mRNA in TMD8 cells; experiment: BCL10 and MALT1 mRNA expression, qRT-PCR; assay type: cell-based, human
Method: Transfection. HEK293T or HepG2 BCL10-/- cells (used only in Supplemental Figure 1 where indicated) were transiently transfected at approximately 80% confluence using Lipofectamine 3000 (ThermoFisher, Cat# L3000015) per manufacture instructions. Cells were lysed in buffer (150 mM NaCl, 2 mM EDTA, 10% glycerol, 1% Nonidet P-40, 20 mM Tris Hcl, pH 7.4) containing protease and phosphatase inhibitors (Thermo Scientific, Cat#78446) at 24 hours for HEK293T cells or 48 hours for HepG2 BCL10-/- cells.
Immunoprecipitation. Cells were rinsed in PBS and lysed in buffer (150 mM NaCl, 2 mM EDTA, 10% glycerol, 1% Nonidet P-40, 20 mM Tris HCl, pH 7.4) containing protease and phosphatase inhibitors (Thermo Scientific, Cat#78446). Supernatants were incubated with anti-Myc tag agarose beads (Takara, Cat# 631208) or anti-HA tag matrix (Roche, Cat# 11815016001) overnight at 4°C with gentle rotation. Beads were then pelleted at 1000 rpm for 2 min and washed 3-4 times with buffer. Antibody-protein conjugates were removed from beads by boiling for ~5-8 minutes in 2x Laemmli sample buffer (Bio-Rad Laboratories, Cat# 161073) containing 2-mercaptoethanol, and samples were then subjected to SDS-PAGE and immunoblotting.
Antibodies for western blots. The HRP-conjugated anti-HA (clone 3F10, Cat# 12013819001) and anti-HA (clone 3F10, Cat# 11867423001) antibodies were purchased from Sigma. The anti-phospho-IKKα(Ser176)/ IKKβ(Ser177) (clone C84E11, Cat# 2078), rabbit anti-GAPDH (clone […]
were purchased from Cell Signaling Technology. The mouse anti-GAPDH (clone 6C5, Cat# sc- […]
anti-IKKα/β (clone H-470, Cat# sc-7607) antibodies were purchased from Santa Cruz. The anti-N4BP1 antibody (Cat# CPA2415) was purchased from Cohesion Biosciences. The anti-mouse (Cat# W4021) and anti-rabbit (Cat# W4011) HRP-conjugated secondaries were purchased from Promega. The anti-Rat HRP-conjugated secondary was purchased from Cell Signaling […]
qRT-PCR. Jurkat T cells grown in serum free media for 4 hours with indicated inhibitors prior to stimulation with PMA/Ionomycin for 4 hours. […]

TMD8 cells = experiment: CellTiter-Glo ATP viability; assay type: cell-based, human
Method: Cell proliferation, viability, and apoptosis assays. […]
Fluorescent Intensity (MFI) was analyzed by FlowJo (version 10.8.0, BD). CellTiter-glo luminescence assay (Promega, Cat# G7570) was used to quantify ATP levels as a surrogate marker of metabolic viability in DLBCL cells treated with compounds for 6-8 days. Annexin V Alexa 488 (ThermoFisher Scientific, Cat# A13201) and SYTOX Blue Dead Cell (ThermoFisher Scientific, Cat# S34857) stains were used to detect apoptosis in DLBCL cells after treatment with 1 µM compounds for 8 days in TMD8 and OCI-Ly1 and for 5 days in OCI-Ly3 cells, then analyzed with flow cytometry. The percentages of cells in early and late apoptosis were combined for quantification. For CellTrace Violet, CellTiter-glo, and Annexin V apoptosis assays, cell were cultured in media with 50% of the usual serum. […]

[2] = test system: all CYP enzymes tested (CYP1A2, CYP2C9, CYP2C19, CYP2D6, CYP3A4); experiment: Reversible CYP inhibition, all enzymes tested; assay type: in vitro ADME; conditions: both sexes, human, pooled human liver microsomes; read-out: IC50 against all CYP enzymes tested
Method: Pharmacokinetic and cytochrome P450 inhibition studies. Studies were performed with the assistance of Touchstone Biosciences (Plymouth Meeting, Pennsylvania). […]
For reversible CYP […]
inhibition studies, different concentrations of M1i-124 were added to 0.2 mg/ml pooled, mixed-gender human liver microsomes (HLM). Each CYP450 isoform-specific probe substrate (CYP1A2, CYP2C9, CYP2C19, CYP2D6, and CYP3A4) was incubated individually with HLM and M1i-124 or corresponding positive control inhibitor (Phenacetin, Tolbutamaide, S-Mephenytoin, Dextromethorphan, Midazolam, and Testosterone). Samples were analyzed for metabolites of the probe substrates by LC-MS/MS at each of the test compound concentrations. A decrease in the formation of the metabolites compared to vehicle control was used to calculate the […]

[3] = test system: MALT1 protein in DLBCL cells; set-up: method as in PMID 30024860, PMID 23238017; conditions: result in words; cited from earlier work

| SMILES | percentage of total lymphocytes and specific lymphocyte populations within the spleen (WT C57BL/6 mice) | BCL10 mRNA (normalized) ([1]; TMD8, 1 μM, 24 hrs) | MALT1 mRNA (normalized) ([1]; TMD8, 1 μM, 24 hrs) | BCL10 and MALT1 mRNA levels ([1]; TMD8, result in words) | IC50 (TMD8 cells; Homo sapiens, TMD8 cells, read-out: 50% cytotoxic concentration) [µM] | viability of TMD8 cells (TMD8 cells; result in words) | IC50 [2] [µM] | MALT1 protein level [3] |
| --- | --- | --- | --- | --- | --- | --- | --- | --- |
| O=S(=O)(NCc1ccc2c(c1)OCO2)c1ccc(Cc2ccc(S(=O)(=O)NCc3ccc4c(c3)OCO4)cc2)cc1 [M1i-124] | no difference | 1.022 and 1.024 and 1.305 | 0.842 and 0.979 and 1.096 | modest time-dependent upregulation | ~0.2 | loss of cell viability; also recorded: dose-dependent decrease in viability | > 10 |  |
| CN1CCCC(CN2c3ccccc3Sc3ccccc32)C1 (centres unmarked) [Mepazine, mepazine, reference compound] |  |  |  |  |  |  |  | unaffected |
